Target: TAAR1 (Mus musculus (Mouse), UniProt Q923Y8)
Assay: TAAR1 radioligand binding assay ([3H]-rac-2-(1,2,3,4-tetrahydro-1-naphthyl)-2-imidazoline, membranes of stably transfected HEK293 cells)
Settings: read-out: Ki (μM) mouse; mouse TAAR1; radioligand [3H]-rac-2-(1,2,3,4-tetrahydro-1-naphthyl)-2-imidazoline at 60 nM; 4° C., 30 minutes
Protocol: The ability of the compounds of the present invention to bind to TAAR1 was investigated in accordance with the test given hereinafter.
For the generation of stably transfected cell lines HEK293 cells were transfected with the pIRESneo2 expression plasmids containing the TAAR coding sequences (described above) with Lipofectamine 2000 (Invitrogen) according to the instructions of the manufacturer, and 24 hours post transfection the culture medium was supplemented with 1 mg/ml G418 (Sigma, Buchs, Switzerland). After a culture period of about 10 days, clones were isolated, expanded and tested for responsiveness to trace amines (all compounds purchased from Sigma) with the cAMP Biotrak Enzyme immunoassay (EIA) System (Amersham) following the non-acetylation EIA procedure provided by the manufacturer.
Cells at confluence were rinsed with ice-cold phosphate buffered saline without Ca^2+ and Mg^2+ containing 10 mM EDTA and pelleted by centrifugation at 1000 rpm for 5 min at 4° C. The pellet was then washed twice with ice-cold phosphate buffered saline and cell pellet was frozen immediately by immersion in liquid nitrogen and stored until use at −80° C. The cell pellet was then suspended in 20 ml HEPES-NaOH (20 mM), pH 7.4 containing 10 mM EDTA, and homogenized with a Polytron (PT 3000, Kinematica) at 10,000 rpm for 10 seconds. The homogenate was centrifuged at 48,000×g for 30 minutes at 4° C. and the pellet resuspended in 20 ml HEPES-NaOH (20 mM), pH 7.4 containing 0.1 mM EDTA (buffer A), and homogenized with a Polytron at 10,000 rpm for 10 seconds. The homogenate was then centrifuged at 48,000×g for 30 minutes at 4° C. and the pellet resuspended in 20 ml buffer A, and homogenized with a Polytron at 10,000 rpm for 10 seconds. […] The homogenate was then centrifuged at 48,000×g for 10 minutes at 4° C., resuspended in HEPES-NaOH (20 mM), pH 7.0 including MgCl2 (10 mM) and CaCl2 (2 ml) (buffer B) at 200 μg protein per ml and homogenized with a Polytron at 10,000 rpm for 10 seconds.
Binding assay was performed at 4° C. in a final volume of 1 ml, and with an incubation time of 30 minutes. […] Non-specific binding was defined as the amount of [^3H]-rac-2-(1,2,3,4-tetrahydro-1-naphthyl)-2-imidazoline bound in the presence of the appropriate unlabelled ligand (10 μM). Competing ligands were tested in a wide range of concentrations (10 pM-30 μM). […] Each experiment was performed in duplicate. All incubations were terminated by rapid filtration through UniFilter-96 plates (Packard Instrument Company) and glass filter GF/C, pre-soaked for at least 2 h in polyethylenimine 0.3%, and using a Filtermate 96 Cell Harvester (Packard Instrument Company). The tubes and filters were then washed 3 times with 1 ml aliquots of cold buffer B. Filters were not dried and soaked in Ultima gold (45 D/well, Packard Instrument Company) and bound radioactivity was counted by a TopCount Microplate Scintillation Counter (Packard Instrument Company).

Chain of TAAR1 (Q923Y8 whole entry): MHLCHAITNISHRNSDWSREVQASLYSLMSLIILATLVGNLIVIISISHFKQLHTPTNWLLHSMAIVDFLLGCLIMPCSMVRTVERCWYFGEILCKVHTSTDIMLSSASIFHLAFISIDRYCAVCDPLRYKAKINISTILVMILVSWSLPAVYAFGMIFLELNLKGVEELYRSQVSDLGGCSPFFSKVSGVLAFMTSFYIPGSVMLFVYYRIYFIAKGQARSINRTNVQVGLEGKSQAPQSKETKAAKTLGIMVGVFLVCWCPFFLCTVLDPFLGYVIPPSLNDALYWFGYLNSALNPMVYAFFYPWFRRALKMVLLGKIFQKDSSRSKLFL

| Compound | Ki |
| --- | --- |
| Clc1cccc(CN(Cc2cnc[nH]2)c2cccc(Cl)c2)c1 [Example 19, (3-Chloro-benzyl)-(3-chloro-phenyl)-(1H-imidazol-4-ylmethyl)-amine] | 0.0077 µM |
| CC(C)N(Cc1cnc[nH]1)c1ccc2c(c1)CCC2 [Example 73, (3H-Imidazol-4-ylmethyl)-indan-5-yl-isopropyl-amine] | 0.0055 µM |
| CC(C)N(Cc1cnc[nH]1)c1cc(Cl)cc(Cl)c1 [Example 24, (3,5-Dichloro-phenyl)-(3H-imidazol-4-ylmethyl)-isopropyl-amine] | 0.001 µM |
| Fc1cc(F)cc(NCc2cnc[nH]2)c1 [Example 277, (3,5-Difluoro-phenyl)-(1H-imidazol-4-ylmethyl)-amine] | 0.006 µM |
| CC(C)N(Cc1cnc[nH]1)c1cccc(COc2ccccc2)c1 [Example 207, (3H-Imidazol-4-ylmethyl)-isopropyl-(3-phenoxymethyl-phenyl)-amine] | 0.002 µM |
| Fc1ccc(NCc2cnc[nH]2)cc1Cl [Example 281, (3-Chloro-4-fluoro-phenyl)-(1H-imidazol-4-ylmethyl)-amine] | 0.004 µM |
| Fc1ccc(NCc2cnc[nH]2)cc1Oc1ccccc1 [Example 202, (4-Fluoro-3-phenoxy-phenyl)-(3H-imidazol-4-ylmethyl)-amine] | 0.0084 µM |
| Fc1cc(Cl)cc(NCc2cnc[nH]2)c1 [Example 179, (3-Chloro-5-fluoro-phenyl)-(1H-imidazol-4-ylmethyl)-amine] | 0.0026 µM |
| CC(C1CC1)N(Cc1cnc[nH]1)c1cccc(Cl)c1 (stereo not shown) [Example 52, (3-Chloro-phenyl)-(1-cyclopropylethyl)-(3H-imidazol-4-ylmethyl)-amine] | 0.004 µM |
| Clc1cccc(N(Cc2cnc[nH]2)CC2CC2)c1 [Example 51, (3-Chloro-phenyl)-cyclopropylmethyl-(3H-imidazol-4-ylmethyl)-amine] | 0.0009 µM |
| Clc1cccc(N(Cc2ccccc2)Cc2cnc[nH]2)c1 [Example 21, Benzyl-(3-chloro-phenyl)-(1H-imidazol-4-ylmethyl)-amine] | 0.0078 µM |
| Fc1ccc(NCc2cnc[nH]2)cc1Br [Example 183, (3-Bromo-4-fluoro-phenyl)-(3H-imidazol-4-ylmethyl)-amine] | 0.0051 µM |
| CCN(Cc1cnc[nH]1)c1cccc(Br)c1 [Example 275, (3-Bromo-phenyl)-ethyl-(3H-imidazol-4-ylmethyl)-amine] | 0.001 µM |
| Clc1cccc(N(Cc2cnc[nH]2)Cc2ccccc2Cl)c1 [Example 18, (2-Chloro-benzyl)-(3-chloro-phenyl)-(1H-imidazol-4-ylmethyl)-amine] | 0.0039 µM |
| CN(Cc1cnc[nH]1)c1cc(F)cc(F)c1 [Example 292, (3,5-Difluoro-phenyl)-(1H-imidazol-4-ylmethyl)-methyl-amine] | 0.007 µM |

More lines, now with the values ahead:

| Ki | Compound |
| --- | --- |
| 0.003 µM | CCN(Cc1cnc[nH]1)c1ccc(F)c(Br)c1 [Example 309, (3-Bromo-4-fluoro-phenyl)-ethyl-(1H-imidazol-4-ylmethyl)-amine] |
| 0.004 µM | CC(C)N(Cc1cnc[nH]1)c1ccc(Br)cc1 [Example 296, (4-Bromo-phenyl)-(1H-imidazol-4-ylmethyl)-isopropyl-amine] |
| 0.0067 µM | CC(C)Oc1cccc(N(Cc2cnc[nH]2)C(C)C)c1 [Example 110, (3H-Imidazol-4-ylmethyl)-(3-isopropoxy-phenyl)-isopropyl-amine] |
| 0.0014 µM | CCN(Cc1cnc[nH]1)c1ccc(Cl)cc1 [Example 57, (4-Chloro-phenyl)-ethyl-(3H-imidazol-4-ylmethyl)-amine] |
| 0.001 µM | CCN(Cc1cnc[nH]1)c1ccc(Cl)c(Cl)c1 [Example 247, (3,4-Dichloro-phenyl)-ethyl-(1H-imidazol-4-ylmethyl)-amine] |
| 0.007 µM | CN(Cc1cnc[nH]1)c1ccc(F)c(F)c1 [Example 287, (3,4-Difluoro-phenyl)-(1H-imidazol-4-ylmethyl)-methyl-amine] |
| 0.004 µM | CC(C)N(Cc1cnc[nH]1)c1cccc(Br)n1 [Example 244, (6-Bromo-pyridin-2-yl)-(3H-imidazol-4-ylmethyl)-isopropyl-amine] |
| 0.0015 µM | CC(C)N(Cc1cnc[nH]1)c1ccc(F)c(Cl)c1 [Example 53, (3-Chloro-4-fluoro-phenyl)-(3H-imidazol-4-ylmethyl)-isopropyl-amine] |
| 0.0082 µM | CC(C)N(Cc1cnc[nH]1)c1cccc(Oc2ccc(Cl)cc2)c1 [Example 149, [3-(4-Chloro-phenoxy)-phenyl]-(3H-imidazol-4-ylmethyl)-isopropyl-amine] |
| 0.0041 µM | Cc1cc(N(Cc2cnc[nH]2)C(C)C)ccc1F [Example 109, (4-Fluoro-3-methyl-phenyl)-(3H-imidazol-4-ylmethyl)-isopropyl-amine] |
| 0.006 µM | COc1c(F)ccc(N(Cc2cnc[nH]2)C(C)C)c1F [Example 102, (2,4-Difluoro-3-methoxy-phenyl)-(3H-imidazol-4-ylmethyl)-isopropyl-amine] |
| 0.0067 µM | CC(C)N(Cc1cnc[nH]1)c1ccc(OC(F)(F)F)cc1 [Example 67, (3H-Imidazol-4-ylmethyl)-isopropyl-(4-trifluoromethoxy-phenyl)-amine] |
| 0.0052 µM | CC(C)N(Cc1cnc[nH]1)c1cc(Cl)ccc1F [Example 78, (5-Chloro-2-fluoro-phenyl)-(3H-imidazol-4-ylmethyl)-isopropyl-amine] |
| 0.005 µM | COc1cc(N(Cc2cnc[nH]2)C(C)C)ccc1Cl [Example 204, (4-Chloro-3-methoxy-phenyl)-(3H-imidazol-4-ylmethyl)-isopropyl-amine] |
| 0.002 µM | CCN(Cc1cnc[nH]1)c1ccc(Cl)c(OC)c1 [Example 324, (4-Chloro-3-methoxy-phenyl)-ethyl-(1H-imidazol-4-ylmethyl)-amine] |
| 0.0036 µM | CCN(Cc1cnc[nH]1)c1cccc(Cl)c1F [Example 81, (3-Chloro-2-fluoro-phenyl)-ethyl-(3H-imidazol-4-ylmethyl)-amine] |

Source: US8586617B2, “Aminomethyl-4-imidazoles” (Hoffmann-La Roche Inc., priority 2006, dated 2013)
